#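 Five compound concentrations were applied to cells in 96-well plates for 48 hours; endpoints were derived by simple linear interpolation of the resulting dose-response curve. Here, GI50 denotes the concentration required for 50% inhibition of growth. The concentration for full growth arrest is given as TGI.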
# Key:
# Assay in all cases: NCI tumour cell line growth inhibition, 48 h
# 786-0 renal = tested on: 786-0 renal
# A549 NSCLC = tested on: A549 NSCLC
# ACHN renal = tested on: ACHN renal
# BT-549 breast = tested on: BT-549 breast
# CAKI-1 renal = tested on: CAKI-1 renal
# CCRF-CEM leukemia = tested on: CCRF-CEM leukemia
# COLO 205 colon = tested on: COLO 205 colon
# DU-145 prostate = tested on: DU-145 prostate
# EKVX NSCLC = tested on: EKVX NSCLC
# HCC-2998 colon = tested on: HCC-2998 colon
# HCT-116 colon = tested on: HCT-116 colon
# HCT-15 colon = tested on: HCT-15 colon
# HL-60(TB) leukemia = tested on: HL-60(TB) leukemia
# HOP-62 NSCLC = tested on: HOP-62 NSCLC
# HOP-92 NSCLC = tested on: HOP-92 NSCLC
# HS 578T breast = tested on: HS 578T breast
# HT29 colon = tested on: HT29 colon
# IGROV1 ovarian = tested on: IGROV1 ovarian
# K-562 leukemia = tested on: K-562 leukemia
# KM12 colon = tested on: KM12 colon
# LOX IMVI melanoma = tested on: LOX IMVI melanoma
# M14 melanoma = tested on: M14 melanoma
# MALME-3M melanoma = tested on: MALME-3M melanoma
# MCF7 breast = tested on: MCF7 breast
# MDA-MB-231 breast = tested on: MDA-MB-231 breast
# MDA-MB-435 = tested on: MDA-MB-435
# MOLT-4 leukemia = tested on: MOLT-4 leukemia
# NCI-H226 lung = tested on: NCI-H226 lung
# NCI-H23 lung = tested on: NCI-H23 lung
# NCI-H460 lung = tested on: NCI-H460 lung
# NCI-H522 lung = tested on: NCI-H522 lung
# NCI/ADR-RES ovarian = tested on: NCI/ADR-RES ovarian
# OVCAR-3 ovarian = tested on: OVCAR-3 ovarian
# OVCAR-4 ovarian = tested on: OVCAR-4 ovarian
# OVCAR-5 ovarian = tested on: OVCAR-5 ovarian
# OVCAR-8 ovarian = tested on: OVCAR-8 ovarian
# PC-3 prostate = tested on: PC-3 prostate
# RPMI-8226 leukemia = tested on: RPMI-8226 leukemia
# RXF 393 renal = tested on: RXF 393 renal
# SF-268 CNS = tested on: SF-268 CNS
# SF-295 CNS = tested on: SF-295 CNS
# SF-539 CNS = tested on: SF-539 CNS
# SK-MEL-2 melanoma = tested on: SK-MEL-2 melanoma
# SK-MEL-28 melanoma = tested on: SK-MEL-28 melanoma
# SK-MEL-5 melanoma = tested on: SK-MEL-5 melanoma
# SK-OV-3 ovarian = tested on: SK-OV-3 ovarian
# SN12C renal = tested on: SN12C renal
# SNB-19 CNS = tested on: SNB-19 CNS
# SNB-75 CNS = tested on: SNB-75 CNS
# SR leukemia = tested on: SR leukemia
# SW-620 colon = tested on: SW-620 colon
# T-47D breast = tested on: T-47D breast
# TK-10 renal = tested on: TK-10 renal
# U251 CNS = tested on: U251 CNS
# UACC-257 melanoma = tested on: UACC-257 melanoma
# UACC-62 melanoma = tested on: UACC-62 melanoma
# UO-31 renal = tested on: UO-31 renal
compound,measurement,setting,value
CC1=C2C(=O)[C@](C)(CO)C=C2C(=O)[C@](C)(O)C12CC2,GI50,786-0 renal,2.1 µM
same,TGI,786-0 renal,4.92 µM
same,GI50,A549 NSCLC,2.91 µM
same,TGI,A549 NSCLC,9.46 µM
same,GI50,ACHN renal,1.86 µM
same,TGI,ACHN renal,3.56 µM
same,GI50,BT-549 breast,1.75 µM
same,TGI,BT-549 breast,3.6 µM
same,GI50,CAKI-1 renal,1.63 µM
same,TGI,CAKI-1 renal,3.07 µM
same,GI50,CCRF-CEM leukemia,3.08 µM
same,TGI,CCRF-CEM leukemia,13.8 µM
same,GI50,COLO 205 colon,2.47 µM
same,TGI,COLO 205 colon,6.4 µM
same,GI50,DU-145 prostate,2.2 µM
same,TGI,DU-145 prostate,4.89 µM
same,GI50,EKVX NSCLC,3.05 µM
same,TGI,EKVX NSCLC,10.2 µM
same,GI50,HCC-2998 colon,1.72 µM
same,TGI,HCC-2998 colon,3.33 µM
same,GI50,HCT-116 colon,1.82 µM
same,TGI,HCT-116 colon,3.84 µM
same,GI50,HCT-15 colon,2.08 µM
same,TGI,HCT-15 colon,4.92 µM
same,GI50,HL-60(TB) leukemia,2.46 µM
same,TGI,HL-60(TB) leukemia,6.21 µM
same,GI50,HOP-62 NSCLC,3.2 µM
same,TGI,HOP-62 NSCLC,11.6 µM
same,GI50,HOP-92 NSCLC,2.12 µM
same,TGI,HOP-92 NSCLC,4.45 µM
same,GI50,HS 578T breast,2.01 µM
same,TGI,HS 578T breast,5 µM
same,GI50,HT29 colon,3.25 µM
same,TGI,HT29 colon,11.8 µM
same,GI50,IGROV1 ovarian,2.4 µM
same,TGI,IGROV1 ovarian,6.47 µM
same,GI50,K-562 leukemia,3.47 µM
same,TGI,K-562 leukemia,> 100 µM
same,GI50,KM12 colon,2.23 µM
same,TGI,KM12 colon,5 µM
same,GI50,LOX IMVI melanoma,1.72 µM
same,TGI,LOX IMVI melanoma,3.3 µM
same,GI50,M14 melanoma,1.8 µM
same,TGI,M14 melanoma,3.56 µM
same,GI50,MALME-3M melanoma,1.86 µM
same,TGI,MALME-3M melanoma,3.52 µM
same,GI50,MCF7 breast,1.47 µM
same,TGI,MCF7 breast,3.16 µM
same,GI50,MDA-MB-231 breast,1.98 µM
same,TGI,MDA-MB-231 breast,3.99 µM
same,GI50,MDA-MB-435,1.84 µM
same,TGI,MDA-MB-435,3.41 µM
same,GI50,MOLT-4 leukemia,3.23 µM
same,TGI,MOLT-4 leukemia,13.1 µM
same,GI50,NCI-H226 lung,2.18 µM
same,TGI,NCI-H226 lung,5.71 µM
same,GI50,NCI-H23 lung,1.84 µM
same,TGI,NCI-H23 lung,3.57 µM
same,GI50,NCI-H460 lung,2.49 µM
same,TGI,NCI-H460 lung,7.21 µM
same,GI50,NCI-H522 lung,2.04 µM
same,TGI,NCI-H522 lung,4.31 µM
same,GI50,NCI/ADR-RES ovarian,1.89 µM
same,TGI,NCI/ADR-RES ovarian,4.02 µM
same,GI50,OVCAR-3 ovarian,1.8 µM
same,TGI,OVCAR-3 ovarian,3.26 µM
same,GI50,OVCAR-4 ovarian,1.91 µM
same,TGI,OVCAR-4 ovarian,3.36 µM
same,GI50,OVCAR-5 ovarian,2.53 µM
same,TGI,OVCAR-5 ovarian,6.67 µM
same,GI50,OVCAR-8 ovarian,2.62 µM
same,TGI,OVCAR-8 ovarian,8.31 µM
same,GI50,PC-3 prostate,2.83 µM
same,TGI,PC-3 prostate,9.03 µM
same,GI50,RPMI-8226 leukemia,2.28 µM
same,TGI,RPMI-8226 leukemia,5.63 µM
same,GI50,RXF 393 renal,1.88 µM
same,TGI,RXF 393 renal,3.52 µM
same,GI50,SF-268 CNS,2.49 µM
same,TGI,SF-268 CNS,7.05 µM
same,GI50,SF-295 CNS,2.22 µM
same,TGI,SF-295 CNS,5.2 µM
same,GI50,SF-539 CNS,1.82 µM
same,TGI,SF-539 CNS,3.54 µM
same,GI50,SK-MEL-2 melanoma,2.39 µM
same,TGI,SK-MEL-2 melanoma,5.2 µM
same,GI50,SK-MEL-28 melanoma,2.06 µM
same,TGI,SK-MEL-28 melanoma,4.19 µM
same,GI50,SK-MEL-5 melanoma,1.81 µM
same,TGI,SK-MEL-5 melanoma,3.29 µM
same,GI50,SK-OV-3 ovarian,3.36 µM
same,TGI,SK-OV-3 ovarian,10.9 µM
same,GI50,SN12C renal,2.19 µM
same,TGI,SN12C renal,5.62 µM
same,GI50,SNB-19 CNS,3.05 µM
same,TGI,SNB-19 CNS,10.5 µM
same,GI50,SNB-75 CNS,1.26 µM
same,TGI,SNB-75 CNS,3.94 µM
same,GI50,SR leukemia,2.52 µM
same,TGI,SR leukemia,17.7 µM
same,GI50,SW-620 colon,1.86 µM
same,TGI,SW-620 colon,3.96 µM
same,GI50,T-47D breast,2.33 µM
same,TGI,T-47D breast,6.42 µM
same,GI50,TK-10 renal,2.23 µM
same,TGI,TK-10 renal,5.63 µM
same,GI50,U251 CNS,2.52 µM
same,TGI,U251 CNS,7.48 µM
same,GI50,UACC-257 melanoma,2.59 µM
same,TGI,UACC-257 melanoma,7.35 µM
same,GI50,UACC-62 melanoma,1.88 µM
same,TGI,UACC-62 melanoma,3.89 µM
same,GI50,UO-31 renal,1.66 µM
same,TGI,UO-31 renal,3.17 µM
